Experimental data taken from article PMC6222425, “Novel 5′-Norcarbocyclic Derivatives of Bicyclic Pyrrolo- and Furano[2,3-d]Pyrimidine Nucleosides” (Molecules : A Journal of Synthetic Chemistry and Natural …, 2018).
Where two headings read alike, the source gives them in different places.

What was measured:
Format in all cases: cell-based
[1] = system: HuTu-80 (human duodenal cancer) cells; test: Cell viability analysis by MTT assay, HuTu-80; conditions: for IC50: Homo sapiens, HuTu80, MTT, 48 h incubation, read-out: Antiproliferative activity, IC50, HuTu80; for Selectivity index, HuTu80: ratio of IC50 on normal hFF3 cells to IC50 of HuTu80
Description: (§1) The target compounds were tested on different lines of tumor cells, HuTu-80 (human duodenal cancer), B16 (mouse melanoma), A549 (human lung adenocarcinoma), KB-3-1 (human squamous cell carcinoma), HeLa (human squamous cell carcinoma of the cervix), as well as on human noncancer cells hFF3.
(§2) Human KB-3-1 epidermoid carcinoma cell line, human HeLa cervical epithelioid carcinoma cell line, human HuTu-80 duodenal cancer cells, human A549 lung carcinoma epithelial cells, mouse B16 melanoma cell line and human hFF3 fibroblast cells were obtained from the Russian Cell Culture Collection (St. Petersburg, Russia) and were cultured in DMEM (hFF3 cells in IMDM) supplemented with 10% (v/v) heat-inactivated fetal bovine serum, penicillin (100 U mL^−1), streptomycin (100 µg mL^−1) and amphotericin ([…]). Cells were maintained in a humidified atmosphere of 5% CO2 at 37 °C.
(§3) All compounds were dissolved in dimethylsulfoxide (DMSO) and stock solutions (10 mmol L^−1) were stored at −20 °C.
(§4) Cells growing in the logarithmic phase were seeded in triplicate in 96-well plates at a density of 5 × 10^3 cells per well for HeLa and HuTu-80 cells, 7 × 10^3 cells per well for KB-3-1 and hFF3, 10 × 10^3 for A549 and 20 × 10^3 for B16. The plates were incubated at 37 °C in a humidified 5% CO2 atmosphere. Cells were allowed to adhere to the surface for 24 h and then tested compounds were added at different concentrations and incubation was continued for 48 h. Then [3-(4,5-dimethylthiazol-2-yl)-2,5-diphenyltetrazolium bromide] (MTT) solution (10 µL, 5 mg mL^−1) was added to each well and the incubation was continued for an additional 3 h. The dark blue formazan crystals formed within the healthy cells were solubilized with DMSO and the absorbance was measured using a Multiscan RC plate reader at 570 nm. The IC50 was determined as the compound concentration required to decrease the A570 to 50% compared to the control (no tested compounds, DMSO) and was determined by interpolation from dose-response curves.

[2] = system: B16 (mouse melanoma) cells; test: Cell viability analysis by MTT assay, B16; conditions: for IC50: MTT, 48 h incubation, read-out: Antiproliferative activity, IC50, B16; for Selectivity index, B16: ratio of IC50 on normal hFF3 cells to IC50 of B16
Description: as §1, §2, §3, §4

[3] = system: A549 (human lung adenocarcinoma) cells; test: Cell viability analysis by MTT assay, A549; conditions: for IC50: Homo sapiens, A549, MTT, 48 h incubation, read-out: Antiproliferative activity, IC50, A549; for Selectivity index, A549: ratio of IC50 on normal hFF3 cells to IC50 of A549
Description: as §1, §2, §3, §4

[4] = system: KB-3-1 (human epidermoid carcinoma) cells; test: Cell viability analysis by MTT assay, KB-3-1; conditions: for IC50: MTT, 48 h incubation, read-out: Antiproliferative activity, IC50, KB-3-1; for Selectivity index, KB-3-1: ratio of IC50 on normal hFF3 cells to IC50 of KB-3-1
Description: as §1, §2, §3, §4

[5] = system: HeLa (human cervical epithelioid carcinoma) cells; test: Cell viability analysis by MTT assay, HeLa; conditions: for IC50: Homo sapiens, HeLa, MTT, 48 h incubation, read-out: Antiproliferative activity, IC50, HeLa; for Selectivity index, HeLa: ratio of IC50 on normal hFF3 cells to IC50 of HeLa
Description: as §1, §2, §3, §4

[6] = system: human noncancer cells hFF3 (fibroblasts); test: Cell viability analysis by MTT assay, normal hFF3 cells; conditions: for IC50: normal cells, MTT, 48 h incubation, read-out: Antiproliferative activity, IC50, hHFF3; for Toxic effect on normal hFF3 cells: concentrations up to 100 μM
Description: as §1, §2, §3, §4

Compound	IC50 [1] [µM]	IC50 ([2]; Mus musculus, 48 h) [µM]	IC50 [3] [µM]	IC50 ([4]; Homo sapiens, KB 3-1, 48 h) [µM]	IC50 [5] [µM]	IC50 [2] [µM]	IC50 [4] [µM]	Selectivity index, KB-3-1 [4]	Selectivity index, HeLa [5]	IC50 ([6]; Homo sapiens, HFF-3, 48 h) [µM]	Toxic effect on normal hFF3 cells [6]	Selectivity index, A549 [3]	Selectivity index, HuTu80 [1]	Selectivity index, B16 [2]	IC50 [6] [µM]
CCCc1cc2cn(C3C=CC(O)C3)c(=O)nc2o1 (stereo not shown) [Compound 3a, 1-(4′-Hydroxy-2′-cyclopenten-1′-yl)-6-propyl-3H-furano[2,3-d]-pyrimidine-2-one]	> 100	> 100	> 100	40.1 ± 5.2	63.4 ± 6.8	–	–	>2.5	>1.6	> 100	not toxic	–	–	–	–
CCCCCCc1cc2cn(C3C=CC(O)C3)c(=O)nc2o1 (stereo not shown) [Compound 3c, 1-(4′-Hydroxy-2′-cyclopenten-1′-yl)-6-hexyl-3H-furano[2,3-d]-pyrimidine-2-one]	100	> 100	50.3 ± 6.1	45.3 ± 5.1	> 100	–	–	>2.2	–	> 100	not toxic	>1.9	–	–	–
CCCCCCCCc1cc2cn(C3C=CC(O)C3)c(=O)nc2o1 (stereo not shown) [Compound 3d, 1-(4′-hydroxy-2′-cyclopenten-1′-yl)-6-octyl-3Hfurano[2,3-d]-pyrimidine-2-one]	46.3 ± 5.7	46.2 ± 3.4	54.1 ± 6.1	47.3 ± 4.2	40.6 ± 3.9	–	–	1	1.2	48.2 ± 5.1	–	0.9	1	1	–
CCCCCCCCCCc1cc2cn(C3C=CC(O)C3)c(=O)nc2o1 (stereo not shown) [Compound 3e, 1-(4′-hydroxy-2′-cyclopenten-1′-yl)-6-decyl-3Hfurano[2,3-d]-pyrimidine-2-one]	7.3 ± 2.4	21.3 ± 3.1	36.2 ± 11.3	11.2 ± 5.3	4.5 ± 0.9	–	–	1	2.6	11.6 ± 2.1	–	0.3	1.6	0.5	–
CCCCCCCCCCCCc1cc2cn(C3C=CC(O)C3)c(=O)nc2o1 (stereo not shown) [Compound 3f, 1-(4′-hydroxy-2′-cyclopenten-1′-yl)-6-dodecyl-3Hfurano[2,3-d]-pyrimidine-2-one]	7.1 ± 0.8	4.5 ± 0.3	10.5 ± 1.9	10.2 ± 4.1	2.5 ± 0.3	–	–	1	4.1	10.2 ± 1.8	–	1	1.4	2.3	–
O=c1nc2oc(-c3ccccc3)cc2cn1C1C=CC(O)C1 (stereo not shown) [Compound 3g, 1-(4′-Hydroxy-2′-cyclopenten-1′-yl)-6-phenyl-3H-furano[2,3-d]-pyrimidine-2-one]	> 100	> 100	> 100	30.1 ± 4.1	45.3 ± 5.1	–	–	>3.3	>2.2	> 100	not toxic	–	–	–	–
CC(C)(C)c1ccc(-c2cc3cn(C4C=CC(O)C4)c(=O)nc3o2)cc1 (stereo not shown) [Compound 3h, 1-(4′-Hydroxy-2′-cyclopenten-1′-yl)-6-tertbutylphenyl-3H-furano[2,3-d]-pyrimidine-2-one]	9.9 ± 1.7	10.1 ± 2.3	7.2 ± 0.8	1.7 ± 0.2	2.3 ± 0.3	–	–	3	2.2	5.1 ± 0.7	–	0.7	0.5	0.5	–

Second part, led by results:

IC50 [1] [µM]	IC50 ([2]; Mus musculus, 48 h) [µM]	IC50 [3] [µM]	IC50 ([4]; Homo sapiens, KB 3-1, 48 h) [µM]	IC50 [5] [µM]	IC50 [2] [µM]	IC50 [4] [µM]	Compound	Selectivity index, KB-3-1 [4]	Selectivity index, HeLa [5]	IC50 ([6]; Homo sapiens, HFF-3, 48 h) [µM]	Toxic effect on normal hFF3 cells [6]	Selectivity index, A549 [3]	Selectivity index, HuTu80 [1]	Selectivity index, B16 [2]	IC50 [6] [µM]
80.4 ± 0.9	> 100	45.3 ± 3.9	25.2 ± 3.4	50.1 ± 4.7	–	–	CCCCCc1cc2cn(C3C=CC(O)C3)c(=O)nc2[nH]1 (stereo not shown) [Compound 4b, 1-(4′-Hydroxy-2′-cyclopenten-1′-yl)-6-pentyl-3H-pyrrolo[2,3-d]-pyrimidine-2-one]	>3.9	>1.9	> 100	–	>2.2	>1.2	–	–
20.4 ± 3.9	> 100	35.2 ± 4.1	25.6 ± 2.9	50.7 ± 6.2	–	–	CCCCCCc1cc2cn(C3C=CC(O)C3)c(=O)nc2[nH]1 (stereo not shown) [Compound 4c, 1-(4′-Hydroxy-2′-cyclopenten-1′-yl)-6-hexyl-3H-pyrrolo[2,3-d]-pyrimidine-2-one]	>3.9	>1.9	> 100	–	>2.8	>4.9	–	–
30.2 ± 2.9	> 100	100	25.4 ± 3.1	20.1 ± 1.9	–	–	CCCCCCCCc1cc2cn(C3C=CC(O)C3)c(=O)nc2[nH]1 (stereo not shown) [Compound 4d, 1-(4′-Hydroxy-2′-cyclopenten-1′-yl)-6-octyl-3H-pyrrolo[2,3-d]-pyrimidine-2-one]	>3.9	>4.9	> 100	–	–	>3.3	–	–
23.4 ± 7.8	25	36.2 ± 6.2	18.4 ± 7.1	11 ± 2.1	25.1 ± 2.4	–	CCCCCCCCCCc1cc2cn(C3C=CC(O)C3)c(=O)nc2[nH]1 (stereo not shown) [Compound 4e, 1-(4′-Hydroxy-2′-cyclopenten-1′-yl)-6-decyl-3H-pyrrolo[2,3-d]-pyrimidine-2-one]	3.4	5.7	63	–	1.7	2.6	2.5	62.5 ± 8.3
3.1 ± 0.4	3.1 ± 0.3	4.5 ± 0.2	4.5 ± 0.9	3.2 ± 0.4	–	–	CCCCCCCCCCCCc1cc2cn(C3C=CC(O)C3)c(=O)nc2[nH]1 (stereo not shown) [Compound 4f, 1-(4′-Hydroxy-2′-cyclopenten-1′-yl)-6-dodecyl-3H-pyrrolo[2,3-d]-pyrimidine-2-one]	0.8	1	3.4 ± 0.7	–	0.8	1.1	1.1	–
> 100	> 100	50.2 ± 6.7	45.4 ± 5.3	90.2 ± 9.6	–	–	O=c1nc2[nH]c(-c3ccccc3)cc2cn1C1C=CC(O)C1 (stereo not shown) [Compound 4g, 1-(4′-Hydroxy-2′-cyclopenten-1′-yl)-6-phenyl-3H-pyrrolo[2,3-d]-pyrimidine-2-one]	>2.2	>1.1	> 100	not toxic	>2	–	–	–
25.4 ± 3.1	35	25.3 ± 2.9	15	25.8 ± 4.6	35.6 ± 4.2	15.3 ± 1.1	CC(C)(C)c1ccc(-c2cc3cn(C4C=CC(O)C4)c(=O)nc3[nH]2)cc1 (stereo not shown) [Compound 4h, 1-(4′-Hydroxy-2′-cyclopenten-1′-yl)-6-(4-tertbutylphenyl)-3H-pyrrolo[2,3-d]-pyrimidine-2-one]	4.6	2.7	70	–	2.8	2.8	1.9	70.9 ± 9.1
